Assay in all cases: GC-MS of decane overlay from E. coli expressing the synthase
What all share (assay type): cell-based

Assay [1] concerns the target T1, α-isocomene synthase (MrTPS2; codon-optimized coMrTPS2) (Matricaria chamomilla, UniProt I6R4V5).
T1 construct: codon-optimized gene, untagged, plasmids pTrc99a / pBbE7a / prstA, expressed in E. coli DH1
T1 sequence (I6R4V5 1-546): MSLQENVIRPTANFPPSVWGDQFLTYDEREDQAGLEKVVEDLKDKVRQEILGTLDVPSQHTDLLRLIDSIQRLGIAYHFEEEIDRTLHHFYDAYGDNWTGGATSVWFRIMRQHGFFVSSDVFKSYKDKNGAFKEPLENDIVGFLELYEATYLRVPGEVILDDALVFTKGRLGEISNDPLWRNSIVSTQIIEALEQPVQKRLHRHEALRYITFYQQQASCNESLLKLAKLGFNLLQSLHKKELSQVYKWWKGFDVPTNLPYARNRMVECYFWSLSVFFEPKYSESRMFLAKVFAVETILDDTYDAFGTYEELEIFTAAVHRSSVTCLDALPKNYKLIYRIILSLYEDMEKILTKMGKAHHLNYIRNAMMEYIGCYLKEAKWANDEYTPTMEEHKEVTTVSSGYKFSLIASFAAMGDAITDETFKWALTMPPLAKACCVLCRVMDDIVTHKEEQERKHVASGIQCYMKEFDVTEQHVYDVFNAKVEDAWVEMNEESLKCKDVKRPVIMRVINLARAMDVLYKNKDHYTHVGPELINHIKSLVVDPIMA
Conditions: main product alpha-isocomene with silphinene, modephene, beta-isocomene, caryophyllene, alpha-humulene; endogenous FPP supply, no FPP added.

Assay [2] concerns the target T2, epi-isozizaene synthase (EIZS; codon-optimized coEIZS) (Streptomyces coelicolor, UniProt Q9K499).
T2 construct: gene cyc1; codon-optimized gene, untagged, plasmids pTrc99a / pBbE7a / prstA, expressed in E. coli DH1
T2 sequence (Q9K499 1-361): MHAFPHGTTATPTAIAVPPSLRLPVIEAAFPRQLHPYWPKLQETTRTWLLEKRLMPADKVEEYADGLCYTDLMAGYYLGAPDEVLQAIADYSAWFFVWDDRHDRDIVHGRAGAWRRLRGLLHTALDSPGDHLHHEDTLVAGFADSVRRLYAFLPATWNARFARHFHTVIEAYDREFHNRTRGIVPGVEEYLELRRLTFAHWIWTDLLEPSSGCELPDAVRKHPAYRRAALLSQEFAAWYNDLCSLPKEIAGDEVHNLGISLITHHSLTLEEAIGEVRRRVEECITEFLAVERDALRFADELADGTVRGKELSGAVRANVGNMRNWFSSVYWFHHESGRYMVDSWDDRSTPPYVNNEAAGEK
Conditions: product epi-isozizaene (single product); endogenous FPP supply, no FPP added.

Assay [3] has as its target T3, pentalenene synthase (PentS; codon-optimized coPentS) (Streptomyces exfoliatus, UniProt Q55012).
T3 construct: gene penA; codon-optimized gene, untagged, plasmids pTrc99a / pBbE7a / prstA, expressed in E. coli DH1; also in S. cerevisiae EPY300
T3 sequence (Q55012 2-337): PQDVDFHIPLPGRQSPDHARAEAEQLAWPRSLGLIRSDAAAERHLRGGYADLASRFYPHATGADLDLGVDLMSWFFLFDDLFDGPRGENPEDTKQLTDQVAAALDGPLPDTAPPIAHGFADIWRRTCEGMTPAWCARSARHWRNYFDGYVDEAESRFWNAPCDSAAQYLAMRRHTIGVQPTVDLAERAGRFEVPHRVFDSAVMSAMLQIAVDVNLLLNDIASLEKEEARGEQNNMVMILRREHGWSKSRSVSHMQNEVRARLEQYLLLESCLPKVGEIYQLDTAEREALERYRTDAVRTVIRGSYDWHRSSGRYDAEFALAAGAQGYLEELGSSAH
Conditions: product pentalenene (single product); endogenous FPP supply, no FPP added.

With `CC(C)=CCC/C(C)=C/CC/C(C)=C/COP(=O)(O)OP(=O)(O)O` [farnesyl diphosphate], the “GC-MS of decane overlay from E. coli expressing the synthase” value in assay [1] was “culture expressing coMrTPS2 produced a broad spectrum of compounds, including α-isocomene”; in assay [2], “cultures expressing coEIZS and coPentS produced single products”; in assay [3], “cultures expressing coEIZS and coPentS produced single products”.

For the origin of these results see PMC6195743, “Renewable production of high density jet fuel precursor sesquiterpenes from Escherichia coli” (Biotechnology for Biofuels, 2018).
